Experimental data from patent publication EP1799816B1, “NOVEL LACCASE ENZYME AND USE THEREOF” (AB Enzymes Oy, priority 2004, dated 2006).
Several values for one entry are separate records, joined by “and”; a condition that tells them apart may be missing. Equal values may be shown once. Read-outs that look alike come from different tables or passages of the source. Blank lines part the entries; values can stand above or below the molecule they belong to.

Columns and labels:
[1] = test system: recombinant Thielavia arenaria TaLcc1 laccase (rTaLcc1); type: biochemical
Experimental: Table 2. Inhibition of the Thielavia wild type laccase.
The inhibition effect of different compounds on the activity of the recombinant TaLcc1 laccase was determined as described in Example 2. Table 7. Inhibition of the recombinant Thielavia arenaria TaLcc1 laccase (rTaLcc1) activity by various compounds.

[2] = test system: Thielavia wild type laccase
[3] = Sodium hypochlorite bleaching of different types of denim, Wascator, colour of face side of denim; conditions: 25 ml/l 10 % NaOCl, 15 min, 40°C, pH 11.5 - 11.9
Experimental: Different types of demin were treated with a TaLcc1 laccase product from Trichoderma strain RF5597 and DeniLite II Base from Novozymes and the results obtained were compared to hypochlorite bleaching. All together 27 pieces of different kinds of denim (whole jeans), which had been previously washed with cellulase after desizing to different abrasion levels or had been only desized with ECOSTONE® A200 (60°C, 10 min), were collected for the test (Table 15). The jeans were made of Indigo dyed denim, except the English jeans contained Indigo dyed denim with sulphur bottom. Jeans were cut in such a way that pieces from the same pair of jeans could be used for all tests.
The sodium hypochlorite bleaching was performed with Electrolux's Wascator FOM 71 CLS washer extractor using denim obtained from the same jeans as in laccase treatments under conditions described in Table 17. Sodium hydroxide was added before adding 25 ml/l of 10 % sodium hypochlorite solution (Klorite Forte, Farmos Oy) to keep the pH above 10.5 during the treatment. After draining the bleach liquor, there was one 2 minutes rinsing step with the liquor ratio of 1:20 before dechlorinating with sodium thiosulphate. After dechlorinating the denim samples were rinsed 3 times for 2 minutes with the liquor ratio of 1:20. The fabrics were dried in a tumbler. Table 17. The process parameters used in the sodium hypochlorite bleaching and dechlorinating.
The bleaching effect was evaluated by measuring the colour as reflectance values as in Example 7. […] Different looks were obtained depending on the type of the denim and cellulase treatment used. "Sulphur-bottom type" denim was the most difficult to bleach. Table 18. Colour measurements of the face side of denim treated with TaLcc1 laccase preparation (RF5597). L* indicates lightness, -b* is the blue direction, +b* is the yellow direction.

[4] = substrate: COc1cc(C=NN=Cc2cc(OC)c(O)c(OC)c2)cc(OC)c1O; assay: Kinetic parameters (Km, kcat, kcat/Km) on laccase substrates; type: biochemical, Melanocarpus albomyces; conditions: other: substrate Syringaldazin, 25°C, buffer unclear, comparison enzyme
Experimental: (§1) On syringaldazin and DMP 40 mM MES buffer, pH 6 and 25 mM succinate bluffer, All activity assays were carried out at 25°C. Kinetic parameters were estimated by a nonlinear regression curve fit. The values were compared to those of Melanocarpus albomyces MaL, laccase.

[5] = substrate: COc1cccc(OC)c1O; assay: as above; type: biochemical, Melanocarpus albomyces; conditions: other: substrate DMP, 25°C, buffer unclear, comparison enzyme
Experimental: as §1

[6] = sample B1, Basic Jeans, Ecostone P1250
[7] = sample E1, English jeans (sulphur bottom), desized only
[8] = sample E2, English jeans (sulphur bottom), Ecostone NP2000
[9] = sample E3, English jeans (sulphur bottom), Rocksoft NCE-EA
[10] = sample E4, English jeans (sulphur bottom), Rocksoft NCE-2X
[11] = sample E5, English jeans (sulphur bottom), Ecostone L900
[12] = sample E6, English jeans (sulphur bottom), Ecostone L900
[13] = sample E7, English jeans (sulphur bottom), Ecostone L900
[14] = sample L1, Lee Cooper jeans, desized only
[15] = sample L2, Lee Cooper jeans, Ecostone L
[16] = sample L3, Lee Cooper jeans, Biotouch C29
[17] = sample L4, Lee Cooper jeans, Ecostone L
[18] = sample L5, Lee Cooper jeans, Indiage Max L
[19] = sample L6, Lee Cooper jeans, Indiage Super L
[20] = sample L7, Lee Cooper jeans, Ecostone CXP500 Exper.
[21] = sample L8, Lee Cooper jeans, Ecostone CXP experimental
[22] = sample L9, Lee Cooper jeans, Ecostone N400
[23] = sample T1, Tincan jeans, desized only
[24] = sample T2, Tincan jeans, Ecostone N400
[25] = sample T3, Tincan jeans, Ecostone L300
[26] = sample T4, Tincan jeans, Denimax 991S
[27] = sample W1, Warric jeans, desized only
[28] = sample W2, Warric jeans, Ecostone P4500
[29] = sample W3, Warric jeans, Indiage Max G
[30] = sample W4, Warric jeans, Ecostone NP2000
[31] = sample W5, Warric jeans, Ecostone L900
[32] = sample W6, Warric jeans, Denabraide MBL 65 E

Molecule: [N-]=[N+]=[N-].[Na+] [NaN3]
Inhibition (%) of laccase rTaLcc1 [1]: 95%

Inhibition(%) wt TaLcc1 ([2]; inhibitor 10 mM, 2 mM ABTS, 25 mM succinate buffer pH 4.5): 0%
Inhibition (%) of laccase rTaLcc1 ([1]; inhibitor 10 mM, ABTS as substrate): 5%
Molecule: O=C(O)CN(CCN(CC(=O)O)CC(=O)O)CC(=O)O [EDTA]

After laccase Treatment L* [3, 6]: 40.62
After laccase Treatment b* [3, 6]: -17.37
After laccase Treatment L* [3, 7]: 21.91
After laccase Treatment b* [3, 7]: -15.03
After laccase Treatment L* [3, 8]: 33.30
After laccase Treatment b* [3, 8]: -16.43
After laccase Treatment L* [3, 9]: 34.13
After laccase Treatment b* [3, 9]: -16.73
After laccase Treatment L* [3, 10]: 35.83
After laccase Treatment b* [3, 10]: -16.86
After laccase Treatment L* [3, 11]: 33.85
After laccase Treatment b* [3, 11]: -16.48
After laccase Treatment L* [3, 12]: 30.61
After laccase Treatment b* [3, 12]: -16.65
After laccase Treatment L* [3, 13]: 32.36
After laccase Treatment b* [3, 13]: -16.75
After laccase Treatment L* [3, 14]: 31.23
After laccase Treatment b* [3, 14]: -20.83
After laccase Treatment L* [3, 15]: 44.11
After laccase Treatment b* [3, 15]: -18.60
After laccase Treatment L* [3, 16]: 39.71
After laccase Treatment b* [3, 16]: -19.67
After laccase Treatment L* [3, 17]: 40.63
After laccase Treatment b* [3, 17]: -19.25
After laccase Treatment L* [3, 18]: 39.47
After laccase Treatment b* [3, 18]: -19.48
After laccase Treatment L* [3, 19]: 41.50
After laccase Treatment b* [3, 19]: -18.68
After laccase Treatment L* [3, 20]: 37.91
After laccase Treatment b* [3, 20]: -19.85
After laccase Treatment L* [3, 21]: 40.74
After laccase Treatment b* [3, 21]: -19.12
After laccase Treatment L* [3, 22]: 40.82
After laccase Treatment b* [3, 22]: -18.82
After laccase Treatment L* [3, 23]: 33.97
After laccase Treatment b* [3, 23]: -17.95
After laccase Treatment L* [3, 24]: 34.38
After laccase Treatment b* [3, 24]: -18.22
After laccase Treatment L* [3, 25]: 40.33
After laccase Treatment b* [3, 25]: -18.30
After laccase Treatment L* [3, 26]: 37.66
After laccase Treatment b* [3, 26]: -18.58
After laccase Treatment L* [3, 27]: 27.75
After laccase Treatment b* [3, 27]: -18.76
After laccase Treatment L* [3, 28]: 39.35
After laccase Treatment b* [3, 28]: -17.39
After laccase Treatment L* [3, 29]: 41.11
After laccase Treatment b* [3, 29]: -16.79
After laccase Treatment L* [3, 30]: 38.07
After laccase Treatment b* [3, 30]: -17.33
After laccase Treatment L* [3, 31]: 37.12
After laccase Treatment b* [3, 31]: -18.03
After laccase Treatment L* [3, 32]: 36.65
After laccase Treatment b* [3, 32]: -17.95
Molecule: OCl [sodium hypochlorite]
Increase of L* [3, 6]: 12.27
Increase of L* [3, 7]: 5.15
Increase of L* [3, 8]: 7.36
Increase of L* [3, 9]: 9.40
Increase of L* [3, 10]: 9.28
Increase of L* [3, 11]: 9.28
Increase of L* [3, 12]: 8.41
Increase of L* [3, 13]: 9.62
Increase of L* [3, 14]: 10.69
Increase of L* [3, 15]: 12.97
Increase of L* [3, 16]: 11.26
Increase of L* [3, 17]: 11.48
Increase of L* [3, 18]: 11.47
Increase of L* [3, 19]: 12.42
Increase of L* [3, 20]: 11.15
Increase of L* [3, 21]: 11.98
Increase of L* [3, 22]: 11.91
Increase of L* [3, 23]: 8.95
Increase of L* [3, 24]: 6.73
Increase of L* [3, 25]: 11.24
Increase of L* [3, 26]: 10.10
Increase of L* [3, 27]: 10.17
Increase of L* [3, 28]: 13.76
Increase of L* [3, 29]: 12.99
Increase of L* [3, 30]: 12.29
Increase of L* [3, 31]: 13.40
Increase of L* [3, 32]: 12.90

Molecule: [Cl-].[Na+] [NaCl]
Inhibition(%) wt TaLcc1 ([2]; pH 4.5): 35% and 42%
Inhibition (%) of laccase rTaLcc1 [1]: 0%

B1: Melanocarpus albomyces laccase MaL (Melanocarpus albomyces) (protein)
chain: EPTCNTPSNRACWSDGFDINTDYEVSTPDTGVTQSYVFNLTEVDNWMGPDGVVKEKVMLINGNIMGPNIVANWGDTVEVTVINNLVTNGTSIHWHGIHQKDTNLHDGANGVTECPIPPKGGQRTYRWRARQYGTSWYHSHFSAQYGNGVVGTIQINGPASLPYDIDLGVFPITDYYYRAADDLVHFTQNNAPPFSDNVLINGTAVNPNTGEGQYANVTLTPGKRHRLRILNTSTENHFQVSLVNHTMTVIAADMVPVNAMTVDSLFLAVGQRYDVVIDASRAPDNYWFNVTFGGQAACGGSLNPHPAAIFHYAGAPGGLPTDEGTPPVDHQCLDTLDVRPVVPRSVPVNSFVKRPDNTLPVALDLTGTPLFVWKVNGSDINVDWGKPIIDYILTGNTSYPVSDNIVQVDAVDQWTYWLIENDPEGPFSLPHPMHLHGHDFLVLGRSPDVPAASQQRFVFDPAVDLARLNGDNPPRRDTTMLPAGGWLLLAFRTDNPGAWLFHCHIAWHVSGGLSVDFLERPADLRQRISQEDEDDFNRVCDEWRAYWPTNPYPKIDSGL
Km [4]: 1.3 µM
kcat [4]: 78.5 s⁻¹
kcat/Km [4]: 6e+07 M⁻¹ s⁻¹
Km [5]: 5 µM
kcat [5]: 69.33 s⁻¹
kcat/Km [5]: 1.35e+07 M⁻¹ s⁻¹
